# Paper PMC10163008 (Nature Communications, 2023)
# Several values for one entry are separate records, joined by “and”; a condition that tells them apart may be missing. Identical values can stand only once.
# How the values were obtained:
# [1] = system: patients with ALK-driven relapsed/refractory neuroblastoma; assay: Serial ctDNA profiling (FoundationACT / FoundationOne Liquid CDx) and clinical response in the NANT phase 1 lorlatinib trial; settings: Group 3 (ALK undetectable) patients, all responded
# Experimental: Optional blood sampling was prospectively performed at predefined time points including pretreatment, after courses 2,4,6, and then after every 4th course and at disease progression. Patients <18 years of age were treated across 5 dose levels (cohort A1).
# Blood samples for circulating tumor DNA profiling were drawn prior to enrollment, after courses 2, 4, and 6, and then after every 4 courses of treatment for the duration of patient participation in the trial. Forty-six patients were evaluable for this ctDNA study.
# 16-20 ml of whole blood was drawn from each patient and sent to Foundation Medicine in Streck tubes for ctDNA profiling.
# Sequencing data were analyzed for the presence of short variants (single base substitutions and short insertions/deletions), copy number amplifications and homozygous deletions, and detectable gene rearrangements. […]
# For most samples, we were able to estimate the ctDNA quantity using the comprehensive tumor fraction (CTF) method, using established computational methods[46],[47]. For samples in which no ALK was detected, we analyzed CTF to determine if any ctDNA was found in the cell-free DNA sequenced. For samples where CTF could not be calculated, MSAF was manually assessed to determine the fraction of ctDNA content[48]. […]
# [2] = system: CHLA-20 cells (ALK R1275Q, parental); assay: Cell viability assay (Cell Titer-Glo, 120 h); type: cell-based, human; settings: cell viability after 120 h of treatment
# [3] = system: CHLA-20 cells with ALK R1275Q/G1202R (CRISPR, in cis); assay: Cell viability assay (Cell Titer-Glo, 120 h); type: cell-based, human
smiles,measurement,setting,value
"C[C@H]1Oc2cc(cnc2N)-c2c(nn(C)c2C#N)CN(C)C(=O)c2ccc(F)cc21 [lorlatinib, (10R)-7-amino-12-fluoro-2,10,16-trimethyl-15-oxo-10,15,16,17-tetrahydro-2H-8,4-(metheno)pyrazolo[4,3-h][2,5,11]-benzoxadiazacyclotetradecine-3-carbonitrile]",duration of response,[1],4 to 48 cycles of therapy
same,IC50,[2],15 ± 4 nM
same,cell viability,"[3]; [lorlatinib] 33, 120 h, exp #1-#9",104.185 and 94.5372 and 95.8368 and 98.7284 and 103.246 and 102.304 and 104.304 and 98.5652
same,IC50,[3]; cell viability after 120 h of treatment,318 ± 58 nM
